pEC50, pIC50: −log10 of the molar value. Activity calls are given as the source filed them. The calls are words filed in the database; no cut-off is given here.
Tests used:
[1] = test system: Mayaro virus; test: (§1) Antiviral activity against Mayaro virus TRVL infected in Asian tiger mosquito C6/36 cells assessed as reduction in virus titer in cell supernatant by measuring inhibition of plaque formation using Vero cells and measured following infection of supernatants with Vero cells for 48 hrs pi by serial dilution plaque based methylene blue dye analysis; assay type: functional
[2] = test system: Chikungunya virus; test: Antiviral activity against CHIKV-nLuc RNA transfected NHDF cells assessed as decrease in Nano-luc signal at 20 uM pretreated 24 hrs before transfection in presence of guanosine measured after 24 hrs by Nano-Glo luciferase assay; assay type: functional, organism-based
[3] = test system: Chikungunya virus; test: Antiviral activity against CHIKV infected in IFN regulatory factor 3 telomerized human fibroblast cells assessed as reduction in virus titer in cell supernatant by measuring inhibition of plaque formation using Vero cells […] followed by infected with virus incubated for 24 hrs and measured following infection of supernatants with Vero cells for 48 hrs by plaque based …; assay type: functional; details: time 72 hrs
[4] = test system: Chikungunya virus; test: Antiviral activity against resistance mutation induced CHIKV-117/119 infected in […] cells assessed as viral infectivity in Vero cells at 10 uM measured up to 24 hrs of post infection by supernatant was quantified by plaque assay; assay type: functional, organism-based; details: time hrs <=24
[5] = biological target: Dihydroorotate dehydrogenase (quinone), mitochondrial (Homo sapiens, UniProt Q02127)
Sequence of Dihydroorotate dehydrogenase (quinone), mitochondrial (Q02127 whole entry): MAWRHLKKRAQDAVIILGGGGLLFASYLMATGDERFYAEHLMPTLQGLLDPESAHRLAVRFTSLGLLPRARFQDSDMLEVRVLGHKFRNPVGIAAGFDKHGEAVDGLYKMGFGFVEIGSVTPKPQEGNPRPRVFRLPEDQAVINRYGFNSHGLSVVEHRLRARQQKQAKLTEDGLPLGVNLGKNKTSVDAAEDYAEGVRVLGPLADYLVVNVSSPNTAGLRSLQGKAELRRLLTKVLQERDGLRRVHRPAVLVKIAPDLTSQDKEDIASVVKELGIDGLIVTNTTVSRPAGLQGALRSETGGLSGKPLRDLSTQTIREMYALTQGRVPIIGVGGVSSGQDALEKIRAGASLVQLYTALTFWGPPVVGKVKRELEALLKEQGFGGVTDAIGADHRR

[6] = test system: Chikungunya virus; test: (§2) Antiviral activity against CHIKV infected in human NHDF cells assessed as reduction in virus titer in cell supernatant by measuring inhibition of plaque formation using Vero cells pretreated with NHDF cells followed by infected with virus incubated for 24 hrs and measured following infection of supernatants with Vero cells for 48 hrs by plaque based methylene blue dye analysis; assay type: functional, organism-based
[7] = test system: Onyong-nyong virus; test: as §1, with “O'nyong-nyong” for “Mayaro”, “virus” for “virus TRVL”; assay type: functional
[8] = test system: Chikungunya virus; test: Antiviral activity against CHIKV-nLuc RNA transfected NHDF cells assessed as decrease in CHIKV RNA at 10 uM pretreated 1 hr before transfection measured after 12 hrs by Nano-Glo luciferase assay; assay type: functional, organism-based; details: time 13.0 hrs
[9] = test system: Chikungunya virus; test: Antiviral activity against resistance mutation induced CHIKV-117 infected in […] cells assessed as viral infectivity in Vero cells at 10 uM measured up to 24 hrs of post infection by supernatant was quantified by plaque assay; assay type: functional, organism-based; details: time hrs <=24
[10] = test system: Chikungunya virus; test: Antiviral activity against resistance mutation induced CHIKV-119 infected in […] cells assessed as viral infectivity in Vero cells at 10 uM measured up to 24 hrs of post infection by supernatant was quantified by plaque assay; assay type: functional, organism-based; details: time hrs <=24
[11] = test system: Chikungunya virus; test: Antiviral activity against wild type CHIKV-117 infected in […] cells assessed as viral infectivity in Vero cells at 10 uM measured up to 24 hrs of post infection by supernatant was quantified by plaque assay; assay type: functional; details: time hrs <=24
[12] = test system: Chikungunya virus; test: as §1, with “CHIKV LR2006-OPY1” for “Mayaro virus TRVL”; assay type: functional
[13] = test system: Chikungunya virus; assay type: functional, organism-based; details: 181-25, NIH3T3, dose 10.0 µM
[14] = test system: Chikungunya virus; test: as §2, with “mouse NIH3T3” for “human NHDF”, “NIH3T3” for “NHDF”; assay type: functional; details: dose 10 µM
[15] = test system: Chikungunya virus; assay type: functional, organism-based; details: 181-25, NHDF, dose 20.0 µM, time 13.0 hrs
[16] = test system: Chikungunya virus; test: as §2, with “Vero cells at 10 uM pretreated with” for “Vero cells pretreated with”; assay type: functional; details: time 72 hrs
[17] = test system: Chikungunya virus; assay type: functional, organism-based; details: 181-25, NHDF, dose 20.0 µM, time 13.0 hrs; remark: listed apart in the source
[18] = test system: Chikungunya virus; test: Antiviral activity against CHIKV-nLuc RNA transfected NHDF cells assessed as decrease in Nano-luc signal at 20 uM pretreated 24 hrs before transfection in presence of uridine measured after 24 hrs by Nano-Glo luciferase assay; assay type: functional, organism-based; details: time 48.0 hrs
[19] = test system: Chikungunya virus; test: as §1, with “CHIKV 99659” for “Mayaro virus TRVL”; assay type: functional; details: Chikungunya virus, 99659, C6
[20] = test system: Chikungunya virus; assay type: functional; details: 181-25, C6, time 48 hrs
[21] = test system: Chikungunya virus; test: as §1, with “CHIKV 37997” for “Mayaro virus TRVL”; assay type: functional; details: Chikungunya virus, 37997, C6
[22] = as §1, with “Ross river” for “Mayaro”, “virus” for “virus TRVL”; assay type: functional; details: La Crosse virus
[23] = test system: Venezuelan equine encephalitis virus; test: as §1, with “Venezuelan equine encephalitis” for “Mayaro”, “TC83” for “TRVL”; assay type: functional
[24] = test system: NHDF; test: (§3) Cytotoxicity against human NHDF cells assessed as cell viability measured after 24 hrs by Cell Titer Glo luminescent assay; assay type: cell-based; details: nhdf, 24 h
[25] = test system: Chikungunya virus; assay type: functional, organism-based; details: 181-25, NHDF, dose 20.0 µM, time 13.0 hrs; remark: listed apart in the source
[26] = test system: Chikungunya virus; assay type: functional, organism-based; details: 181-25, NHDF, dose 20.0 µM, time 13.0 hrs; remark: listed apart in the source
[27] = test system: Chikungunya virus; assay type: functional, organism-based; details: 181-25, Vero, dose 10.0 µM, time 20.0 hrs
[28] = Cytotoxicity against HEK293 cells at 10 uM; assay type: cell-based; details: human
[29] = test system: Venezuelan equine encephalitis virus; test: as §1, with “Venezuelan equine encephalitis” for “Mayaro”, “TC83” for “TRVL”, “human […]” for “Asian tiger mosquito C6/36”, “at 10 uM” for “and”; assay type: functional, NHDF
[30] = test system: Una virus; test: as §1, with “Una” for “Mayaro”, “MAC150” for “TRVL”; assay type: functional
[31] = test system: West Nile virus; test: as §1, with “West nile” for “Mayaro”, “virus” for “virus TRVL”, “HEK293” for “Asian tiger mosquito C6/36”, “at 10 uM” for “and”; assay type: functional
[32] = test system: dengue virus type 2; test: as §1, with “DENV2” for “Mayaro virus TRVL”, “HEK293” for “Asian tiger mosquito C6/36”, “at 10 uM” for “and”; assay type: functional
[33] = as §3; assay type: cell-based; details: NHDF cells

Row | SMILES | EC90 [1] [nM] | Activity [2] | EC90 [3] [nM] | Activity [4] | pIC50 [5] | EC90 [7] [nM] | inhibition [8] | Activity [9] | Activity [10] | EC90 [12] [nM] | EC90 [14] [nM] | inhibition [15] | log(activity) [16] | inhibition [17] | Activity [18] | EC90 [19] [nM] | EC90 [21] [nM] | EC90 [22] [nM] | EC90 [23] [nM] | further results
1 | COc1cc2c(cc1NC(=O)c1ccc(C(C)(C)C)cc1)CCCC2 | 5100 | Active | 1030 | Active | 5.30 | 300 | Active | Active | Active | 400 | 3160 | Active | 2.5 | Active | inactive | 1000 | 3390 | 320 | 2100 | pEC50 [6]: 5.84; log(activity) [11]: 1.5; Activity [13]: Active; EC90 [20]: 1450 nM; CC50 [24]: 169 µM
2 | COc1cc2c(cc1NC(=O)c1ccc(C(C)(C)C)cc1)CCCCC2 | 250 | Active | 4870 | Active | 5.46 | 180 | Active | Active | Active | 150 | 1010 | Active | 4 | Active | inactive | 780 | 180 | 210 | 2900 | inhibition [25]: Active; inhibition [26]: Active; inhibition [27]: Active; CC50 [28]: > 30 µM; log(activity) [29]: 2.7; EC90 [30]: 340 nM; log(activity) [31]: 2; log(activity) [32]: 1.5; CC50 at 24 h [33]: 78.5 µM
